Measured values reported in the ASAP Discovery antiviral challenge data (2025).
Values after ≈ are worked out from the molar mass of the structure shown. Values joined by “and” are separate entries in the source; they are usually repeats but may differ in a detail not shown here. Equal values may be shown once.

Key:
[1] = human; liver_microsomes
[2] = mdck_mdr1
[3] = not given; remark: listed apart in the source

Compound	logD	microsomal CLint [1] [µL/min/mg]	Papp [2]	solubility kinetic [3]
O=C(Nc1cc(Cl)cc([C@H]2CN(Cc3ccccc3)C[C@@H]2c2cccc(-c3nn[nH]n3)c2)c1)OCc1ccccc1 (racemic)	4.1	46.3	0.2 ×10⁻⁶ cm/s	
CC(C)CNC(=O)c1cc(Cl)c(F)cc1NS(=O)(=O)c1ccc(Oc2ccccc2Cl)cc1		198	2.39 ×10⁻⁶ cm/s	4 µM (≈ 2.05 µg/mL)
NCc1cccc([C@H]2C[C@@H]2c2cc(Cl)cc(NC(=O)OCc3ccccc3)c2)c1 (racemic)		11.4	1.66 ×10⁻⁶ cm/s	50 µM (≈ 20.3 µg/mL)
CNC(=O)[C@H](Nc1ccc2c(c1)CNC2)c1cc(Cl)cc2[nH]c(-c3ccccc3)nc12 (racemic)	1.8		1.02 ×10⁻⁶ cm/s	178 µM (≈ 76.9 µg/mL)
Cc1c(C(=O)Nc2cc([C@H]3CCOC3)ccn2)cc(C2CC2)n1C (racemic)	3	57.7	27.2 ×10⁻⁶ cm/s	
NCc1cc(Cl)cc(C(=O)Nc2ccc3c(c2)CNC3)c1	2			
CC(C)[C@H](Nc1ncnc2[nH]c(-c3cnn(C)c3C#N)cc12)c1ccc2c(n1)OCCO2 (single isomer, unassigned)	3.7 and 3.9		13.7 ×10⁻⁶ cm/s and 14.6 ×10⁻⁶ cm/s	53 µM and 50 µM
c1ccc2c(CN3CCC(c4c[nH]c5cccnc45)CC3)c[nH]c2c1		16	4.6 ×10⁻⁶ cm/s	
CO[C@H]1C[C@H](n2ncc3c(C(=O)Nc4ccc5c(c4)CNC5)cc(Cl)cc32)C1	1.5		1.6 ×10⁻⁶ cm/s	340 µM (≈ 135 µg/mL)
CC(C)n1cc2c(C(=O)Nc3ccc4c(c3)CNC4)cc(Cl)cc2n1	1.6		3.4 ×10⁻⁶ cm/s	181 µM (≈ 64.2 µg/mL)
Cc1nccn1C[C@H]1CCc2c(c3ccccc3n2C)C1=O (racemic)				127 µM (≈ 37.3 µg/mL)
CCCCNC(=O)[C@H](Nc1ccc2c(c1)CNC2)c1cc(Cl)cc(C2CC2)c1 (racemic)	2.3		0.7 ×10⁻⁶ cm/s	379 µM (≈ 151 µg/mL)
CNC(=O)[C@H](Nc1ccc(-c2nnn[nH]2)cc1)c1cc(Cl)cc(C2CC2)c1 (racemic)	1.1		1.6 ×10⁻⁶ cm/s	
NCc1cccc(NC(=O)[C@H](NC(=O)OCc2ccccc2)C(C2CCC2)C2CCC2)c1 (racemic)	2.5	12.6	1.6 ×10⁻⁶ cm/s	
Cn1ncc2c(C(=O)Nc3ccc4c(c3)CNC4)cc(Br)cc21	1		4.66 ×10⁻⁶ cm/s	392 µM (≈ 146 µg/mL)
O=C(NCC(F)F)[C@H](Nc1cnc2c(c1)CNC2)c1cc(Cl)cc(C2CC2)c1 (racemic)	1.5		0.8 ×10⁻⁶ cm/s	362 µM (≈ 147 µg/mL)

Compound	logD	microsomal CLint [1] [µL/min/mg]	Papp [2]	solubility kinetic [3]
C=C[C@H]1CN2CC[C@H]1C[C@@H]2[C@@H](O)c1ccnc2ccc(OC)cc12			13.9 ×10⁻⁶ cm/s	
CC(C)[C@H](Nc1ncnc2[nH]cc(C(=O)NC3CC3)c12)c1ccc2c(c1)S(=O)(=O)CCC2 (single isomer, unassigned)	3.2 and 3		2.97 ×10⁻⁶ cm/s and 1.27 ×10⁻⁶ cm/s	
O=C(NCC(F)F)[C@H](Nc1ccc2c(c1)CNC2)c1cc(Cl)cc(C2CC2)c1 (racemic)	1.6		1.55 ×10⁻⁶ cm/s	367 µM (≈ 149 µg/mL)
CC(C)[C@H](Nc1ncnc2[nH]c(C(=O)N[C@@H]3CCN(C)C3)cc12)c1ccc2c(c1)S(=O)(=O)CCC2 (single isomer, unassigned)	1.4 and 1.6			366 µM and 392 µM
CC(C)[C@H](Nc1ncnc2[nH]c(-c3cnn(CC(=O)N(C)C)c3)cc12)c1ccc2c(c1)S(=O)(=O)CCC2 (single isomer, unassigned)	2.2		1.17 ×10⁻⁶ cm/s and 0.555 ×10⁻⁶ cm/s	361 µM and 256 µM
CCc1cc(C(=O)Nc2cccc(CN)c2)sc1-c1ccc(Cl)cc1	4.3		0.995 ×10⁻⁶ cm/s	7 µM (≈ 2.6 µg/mL)
C=CC[C@H](Nc1ccc(-c2nn[nH]n2)cc1)c1cc(Cl)cc(NC(=O)OCc2ccccc2)c1 (racemic)	3.9	10.1	2.6 ×10⁻⁶ cm/s	
O=C(Nc1cc(Cl)cc(C(=O)Nc2n[nH]c3c2CNC3)c1)OCc1ccccc1			1.44 ×10⁻⁶ cm/s	26 µM (≈ 10.7 µg/mL)
Cc1cc(-c2ccc([C@H](NC(=O)OCc3ccccc3)C(=O)Nc3cccc(CN)c3)cc2)cs1 (racemic)		29.5	1.19 ×10⁻⁶ cm/s	8 µM (≈ 3.88 µg/mL)
COc1cc(Cl)cc([C@H](Nc2ccc3c(c2)CNC3)C(=O)NCC(F)F)c1 (racemic)	0.5		0.7 ×10⁻⁶ cm/s	
OCC#C[C@H](Nc1ccc2c(c1)CNC2)c1cc(Cl)cc2[nH]ncc12 (racemic)	0.5		0.592 ×10⁻⁶ cm/s	135 µM (≈ 47.6 µg/mL)
O=C(Nc1cc(Cl)cc(-c2ccc3[nH]c(C(=O)O)cc3c2)c1)OCc1ccccc1	3.7		0.61 ×10⁻⁶ cm/s	356 µM (≈ 150 µg/mL)
O=C(NCC(F)(F)F)c1cc(Cl)c(F)cc1NS(=O)(=O)c1ccc(Oc2ccccc2Cl)cc1		70	2.4 ×10⁻⁶ cm/s	14 µM (≈ 7.52 µg/mL)
NCc1cccc(NC(=O)[C@H](NC(=O)OCc2ccccc2)C2CCCCC2)c1 (racemic)	2	5.29	1.58 ×10⁻⁶ cm/s	
CNC(=O)[C@H](Nc1ccc2c(c1)CNC2)c1cc(Cl)cc(C2CC2)c1 (racemic)	0.9		1.5 ×10⁻⁶ cm/s	358 µM (≈ 127 µg/mL)
